In brackets after ≈: the same amount, converted by molar mass. Activity calls are given as the source filed them. The rule behind the calls is not given here.
Assays:
Candida albicans [1] = assay: Antimicrobial activity against Candida albicans assessed as diameter of growth inhibition zone at 40 ug/ml by disk diffusion method; assay type: functional; conditions: read-out: DIZ
Aspergillus niger [2] = assay: Antimicrobial activity against Aspergillus niger assessed as diameter of growth inhibition zone at 40 ug/ml by disk diffusion method; assay type: functional; conditions: read-out: DIZ
Escherichia coli [3] = assay: Antimicrobial activity against Escherichia coli isolated from infected patient assessed as diameter of growth inhibition zone at 40 ug/ml by disk diffusion method; assay type: functional; conditions: read-out: DIZ
Salmonella typhi [4] = assay: Antimicrobial activity against Salmonella enterica subsp. enterica serovar Typhi isolated from infected patient assessed as diameter of growth inhibition zone at 40 ug/ml by disk diffusion method; assay type: functional; conditions: read-out: DIZ
Bacillus subtilis [5] = assay: Antimicrobial activity against Bacillus subtilis isolated from infected patient assessed as diameter of growth inhibition zone at 40 ug/ml by disk diffusion method; assay type: functional; conditions: read-out: DIZ
Staphylococcus aureus [6] = assay: Antimicrobial activity against Staphylococcus aureus isolated from infected patient assessed as diameter of growth inhibition zone at 40 ug/ml by disk diffusion method; assay type: functional; conditions: read-out: DIZ
HepG2 [7] = assay: Cytotoxicity against Homo sapiens (human) HepG2 cells assessed as inhibition of cell viability by trypan blue exclusion method; assay type: functional; conditions: read-out: LC50 (the source's name)
Goatpox virus [8] = assay: Antiviral activity against Goatpox virus infected African green monkey Vero cells assessed as inhibition of viral replication at MNTC dose incubated for 24 hr measured after 6 days; assay type: functional
Buffalopox virus [9] = assay: Antiviral activity against Buffalopox virus virus infected African green monkey Vero cells assessed as inhibition of viral replication at MNTC dose incubated for 24 hr measured after 4 days; assay type: functional
Camelpox virus [10] = assay: Antiviral activity against Camelpox virus infected African green monkey Vero cells assessed as inhibition of viral replication at MNTC dose incubated for 24 hr measured after 3 days; assay type: functional
Goatpox virus [11] = assay: Antiviral activity against Goatpox virus infected African green monkey Vero cells assessed as reduction of virus titers at MNTC dose incubated for 24 hr measured after 6 days by TCID50 assay; assay type: functional, organism-based
Buffalopox virus [12] = assay: Antiviral activity against Buffalopox virus virus infected African green monkey Vero cells assessed as reduction of virus titers at MNTC dose incubated for 24 hr measured after 4 days by TCID50 assay; assay type: functional, organism-based
Camelpox virus [13] = assay: Antiviral activity against Camelpox virus infected African green monkey Vero cells assessed as reduction of virus titers at MNTC dose incubated for 24 hr measured after 3 days by TCID50 assay; assay type: functional, organism-based
Vero = assay: Cytotoxicity against Chlorocebus aethiops (African green monkey) Vero cells assessed as change in morphological changes after 4 days by inverted microscopic analysis; assay type: cell-based; conditions: chlorocebus sabaeus, 96 h
[14] = system: Radical scavenging activity; assay: Antioxidant activity assessed as DPPH radical scavenging activity at 15 ug/ml after 30 min by spectrophotometric analysis; assay type: functional
Candida albicans [15] = assay: Antimicrobial activity against Candida albicans assessed as growth inhibition by disk diffusion method; assay type: functional
Aspergillus niger [16] = assay: Antimicrobial activity against Aspergillus niger assessed as growth inhibition by disk diffusion method; assay type: functional
Escherichia coli [17] = assay: Antimicrobial activity against Escherichia coli isolated from infected patient assessed as growth inhibition by disk diffusion method; assay type: functional
Salmonella typhi [18] = assay: Antimicrobial activity against Salmonella enterica subsp. enterica serovar Typhi isolated from infected patient assessed as growth inhibition by disk diffusion method; assay type: functional
Bacillus subtilis [19] = assay: Antimicrobial activity against Bacillus subtilis isolated from infected patient assessed as growth inhibition by disk diffusion method; assay type: functional
Staphylococcus aureus [20] = assay: Antimicrobial activity against Staphylococcus aureus isolated from infected patient assessed as growth inhibition by disk diffusion method; assay type: functional
HepG2 [21] = assay: Growth inhibition of Homo sapiens (human) HepG2 cells at 25 to 100 ug/ml after 48 hr by MTT assay; assay type: functional, cell-based

Structure (SMILES)	zone of inhibition at 40 µg/mL (Candida albicans [1]) [mm]	zone of inhibition at 40 µg/mL (Aspergillus niger [2]) [mm]	zone of inhibition at 40 µg/mL (Escherichia coli [3]) [mm]	zone of inhibition at 40 µg/mL (Salmonella typhi [4]) [mm]	zone of inhibition at 40 µg/mL (Bacillus subtilis [5]) [mm]	zone of inhibition at 40 µg/mL (Staphylococcus aureus [6]) [mm]	CC50 (HepG2 [7]) [µg/mL]	inhibition (INH) (Goatpox virus [8]) [%]	inhibition (INH) (Buffalopox virus [9]) [%]	inhibition (INH) (Camelpox virus [10]) [%]	inhibition (Goatpox virus [11])	inhibition (Buffalopox virus [12])	inhibition (Camelpox virus [13])	MNTD (Vero) [µg]	Activity [14] [%]	MIC (Candida albicans [15]) [µg/mL]	MIC (Aspergillus niger [16]) [µg/mL]	MIC (Escherichia coli [17]) [µg/mL]	MIC (Salmonella typhi [18]) [µg/mL]	MIC (Bacillus subtilis [19]) [µg/mL]	other results
COc1ccc(/C=C/C(=O)c2cc(C)oc2C)cc1	18	18	21	24	23	21	63 (≈ 246 µM)	0	0	0	inactive	inactive	inactive	1.3	64.9	30 (≈ 117 µM)	30 (≈ 117 µM)	30 (≈ 117 µM)	20 (≈ 78 µM)	40 (≈ 156 µM)	MIC (Staphylococcus aureus [20]): 40 µg/mL (≈ 156 µM)
Cc1cc(C(=O)/C=C/c2ccc[nH]2)c(C)o1	17	21	18	19	21	21	59 (≈ 274 µM)	0	0	0	inactive	inactive	inactive	25	31	30 (≈ 139 µM)	40 (≈ 186 µM)	40 (≈ 186 µM)	40 (≈ 186 µM)	30 (≈ 139 µM)	MIC (Staphylococcus aureus [20]): 30 µg/mL (≈ 139 µM)
CCc1ccc(/C=C/C(=O)c2cc(C)oc2C)o1	21	22	27	23	24	18	69 (≈ 282 µM)	0	0	0	inactive	inactive	inactive	2.08	31	40 (≈ 164 µM)	40 (≈ 164 µM)	40 (≈ 164 µM)	40 (≈ 164 µM)	30 (≈ 123 µM)	MIC (Staphylococcus aureus [20]): 40 µg/mL (≈ 164 µM)
O=C(/C=C/c1ccc[nH]1)c1ccsc1	23	23	24	23	23	16	21 (≈ 103 µM)	0	0	0	inactive	inactive	inactive	4.68	31	40 (≈ 197 µM)	30 (≈ 148 µM)	40 (≈ 197 µM)	40 (≈ 197 µM)	30 (≈ 148 µM)	MIC (Staphylococcus aureus [20]): 40 µg/mL (≈ 197 µM)
COc1ccc(/C=C/C(=O)c2ccsc2)cc1	25	23	26	24	24	25	12 (≈ 49.1 µM)	0	0	0	inactive	inactive	inactive	6.24	31	30 (≈ 123 µM)	30 (≈ 123 µM)	20 (≈ 81.9 µM)	40 (≈ 164 µM)	30 (≈ 123 µM)	growth inhibition (GI) (HepG2 [21]): Active; MIC (Staphylococcus aureus [20]): 20 µg/mL (≈ 81.9 µM)
CCc1ccc(/C=C/C(=O)c2ccsc2)o1	25	23	25	26	25	23	8 (≈ 34.4 µM)	0	0	0	inactive	inactive	inactive	58.3	31	20 (≈ 86.1 µM)	40 (≈ 172 µM)	30 (≈ 129 µM)	20 (≈ 86.1 µM)	20 (≈ 86.1 µM)	growth inhibition (GI) (HepG2 [21]): Active; MIC (Staphylococcus aureus [20]): 20 µg/mL (≈ 86.1 µM)
O=C(O)c1cn(C2CC2)c2cc(N3CCNCC3)c(F)cc2c1=O [CIPROFLOXACIN]				23	23	24															
O=C(/C=C/c1c[nH]c2ccccc12)c1ccsc1	28	24	20	19	16	19	36 (≈ 142 µM)	0	0	0	inactive	inactive	inactive	1.3	31	30 (≈ 118 µM)	30 (≈ 118 µM)	30 (≈ 118 µM)	30 (≈ 118 µM)	40 (≈ 158 µM)	MIC (Staphylococcus aureus [20]): 30 µg/mL (≈ 118 µM)
Cc1cc(C(=O)/C=C/c2c[nH]c3ccccc23)c(C)o1	19	11	21	22	22	22	81 (≈ 305 µM)	0	0	0	inactive	inactive	inactive	75	31	40 (≈ 151 µM)	40 (≈ 151 µM)	40 (≈ 151 µM)	30 (≈ 113 µM)	40 (≈ 151 µM)	MIC (Staphylococcus aureus [20]): 20 µg/mL (≈ 75.4 µM)
OC(Cn1cncn1)(Cn1cncn1)c1ccc(F)cc1F [FLUCONAZOLE]	24	25																			
